Measured values reported in ChEMBL document CHEMBL1145275, “Dihydroindenoisoquinolines function as prodrugs of indenoisoquinolines” (2005).
Values belong to the molecule of their own block, whether it stands above or below them.

What was measured:
[1] = biological target: T1, DNA topoisomerase 1 (Homo sapiens) (UniProt P11387); assay: Concentration tested for Top1-mediated DNA cleavage;+: weak activity; format: functional
T1 sequence (whole entry): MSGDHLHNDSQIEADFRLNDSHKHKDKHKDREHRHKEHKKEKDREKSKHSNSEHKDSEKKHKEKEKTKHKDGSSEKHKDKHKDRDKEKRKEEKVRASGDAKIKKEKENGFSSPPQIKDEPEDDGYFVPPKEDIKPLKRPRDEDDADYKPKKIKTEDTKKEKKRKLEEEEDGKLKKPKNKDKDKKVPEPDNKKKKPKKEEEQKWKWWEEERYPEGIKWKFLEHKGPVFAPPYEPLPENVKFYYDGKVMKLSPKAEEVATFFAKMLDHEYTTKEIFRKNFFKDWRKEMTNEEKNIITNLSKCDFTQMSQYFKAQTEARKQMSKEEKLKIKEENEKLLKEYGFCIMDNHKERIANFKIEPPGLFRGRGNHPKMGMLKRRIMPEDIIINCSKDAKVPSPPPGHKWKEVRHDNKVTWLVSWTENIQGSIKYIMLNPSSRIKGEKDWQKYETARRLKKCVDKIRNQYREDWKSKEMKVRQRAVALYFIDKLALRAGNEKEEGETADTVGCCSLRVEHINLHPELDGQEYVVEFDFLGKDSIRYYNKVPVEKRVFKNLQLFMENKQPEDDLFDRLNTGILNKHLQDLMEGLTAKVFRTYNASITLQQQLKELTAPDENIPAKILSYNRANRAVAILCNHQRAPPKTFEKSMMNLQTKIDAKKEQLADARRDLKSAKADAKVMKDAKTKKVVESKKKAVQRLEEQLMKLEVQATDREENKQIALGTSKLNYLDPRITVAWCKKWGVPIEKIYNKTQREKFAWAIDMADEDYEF

Cell line = assay: Mean graph midpoint for growth inhibition of all human cancer cell lines; format: functional
[2] = biological target: T1, DNA topoisomerase 1 (Homo sapiens); assay: Concentration tested for Top1-mediated DNA cleavage (concentration taken upto 100 uM);0: no activity; format: functional
[3] = Growth inhibition against Renal SN12C cell line; format: functional; conditions: Homo sapiens
[4] = biological target: T1, DNA topoisomerase 1 (Homo sapiens); assay: Concentration tested for Top1-mediated DNA cleavage (concentration taken upto 100 uM); ++: similar activity as the parent compound 3a; format: functional
OVCAR-3 [5] = assay: Growth inhibition against OvarianOVCAR-3 cell line; format: functional; conditions: Homo sapiens
SF-539 = assay: Growth inhibition against CNSSF-539 cell line; format: functional; conditions: Homo sapiens
MDA-MB-435 = assay: (§1) Growth inhibition against Breast MDA-MB-435 cell line; format: functional; conditions: Homo sapiens
UACC-62 = assay: (§2) Growth inhibition against Melanoma UACC-62 cell line; format: functional; conditions: Homo sapiens
[6] = Growth inhibition against ColonHCT-116 cell line; format: functional; conditions: Homo sapiens
DU-145 [7] = assay: Growth inhibition against ProstateDU-145 cell line; format: functional; conditions: Homo sapiens
HOP-62 = assay: Growth inhibition against Lung HOP-62 cell line; format: functional; conditions: Homo sapiens
[8] = biological target: T1, DNA topoisomerase 1 (Homo sapiens); assay: Concentration tested for Top1-mediated DNA cleavage (concentration taken upto 100 uM); +++: Good activity; format: functional
[9] = as §1; format: functional; conditions: Homo sapiens
[10] = as §2; format: functional, Homo sapiens
[11] = Growth inhibition against Colon HCT116 cell line; format: functional, Homo sapiens, HCT-116
[12] = Growth inhibition against CNS SF-539 cell line; format: functional; conditions: Homo sapiens
HCT-116 [13] = assay: Growth inhibition against HCT116 V cell line; format: functional; conditions: Homo sapiens
[14] = biological target: T1, DNA topoisomerase 1 (Homo sapiens); assay: Concentration tested for Top1-mediated DNA cleavage (concentration taken upto 100 uM); format: functional
[15] = Growth inhibition against P388 cell line in; format: functional
[16] = Ratio of the growth inhibition for P388/CPT 45 resistant cells to that of parental cells; Value expressed as RF (resistance factor); format: functional, Homo sapiens
HCT-116 [17] = assay: Growth inhibition against HCT116 DNA topoisomerase 1 in (Top1-deficient and parental tumor cells); format: functional; conditions: Homo sapiens
DU-145 [18] = assay: Growth inhibition against Prostate DU-145 cell line; format: functional; conditions: Homo sapiens
HCT-116 [19] = assay: Ratio of the growth inhibition for HCT116 Top1 resistant cells to that of parental cells; Value expressed as RF (resistance factor); format: functional, Homo sapiens
HCT-116 [20] = assay: Growth inhibition against HCT116 cell line; format: functional; conditions: Homo sapiens
P388 [21] = assay: Growth inhibition against P388 cell line; format: functional; conditions: Mus musculus
OVCAR-3 [22] = assay: Growth inhibition against Ovarian OVCAR-3 cell line; format: functional; conditions: Homo sapiens
HCT-116 [23] = assay: Ratio of the growth inhibition for HCT116 resistant cells to that of parental cells; Value expressed as RF (resistance factor); format: functional, Homo sapiens
P388 [24] = assay: Ratio of the growth inhibition for P388 resistant cells to that of parental cells; Value expressed as RF (resistance factor); format: functional, Homo sapiens
HCT-116 [25] = assay: Ratio of the growth inhibition for Top1 siRNA cells (HCT116-Top1) to that for the vector-control cells (HCT116-V); Value expressed as RF (resistance factor); format: functional, Homo sapiens
[26] = biological target: T1, DNA topoisomerase 1 (Homo sapiens); assay: Concentration tested for Top1-mediated DNA cleavage (concentration taken upto 100 uM);+: weak activity; format: functional

SMILES: C=CCN1C(=O)c2cc(OC)c(OC)cc2[C@H]2C(=O)c3cc4c(cc3[C@H]21)OCO4
Concentration [2]: 100 µM
MGM (Cell line): 0.98 µM

SMILES: COc1cc2c3c(n(C)c(=O)c2cc1OC)-c1cc2c(cc1C3=O)OCO2
GI50 [3]: 68 µM
Concentration [4]: 100 µM
GI50 (OVCAR-3 [5]): 73 µM
GI50 (SF-539): 41 µM
GI50 (MDA-MB-435): 96 µM
GI50 (UACC-62): 4.2 µM
GI50 [6]: 35 µM
GI50 (DU-145 [7]): 37 µM
MGM (Cell line): 20 µM
GI50 (HOP-62): 1.3 µM

SMILES: COc1cc2c(cc1OC)[C@@]1(C)C(=O)c3cc4c(cc3[C@H]1N(C)C2=O)OCO4
GI50 [3]: 26 µM
Concentration [4]: 100 µM
GI50 [9]: > 100 µM
GI50 [10]: 58.1 µM
GI50 ([10]; Homo sapiens, UACC-62): 82.4 µM
GI50 [11]: 24 µM
GI50 ([11]; Homo sapiens, HCT-116): 43.5 µM
GI50 [12]: 96.2 µM
MGM (Cell line): 51.3 µM
GI50 (HOP-62): > 100 µM

SMILES: C=CCn1c2c(c3cc(OC)c(OC)cc3c1=O)C(=O)c1cc3c(cc1-2)OCO3
MGM (Cell line): 4.16 µM
Concentration [26]: 100 µM

The next lines start with results.

Concentration [1]: 100 µM
SMILES: O=C1c2cc3c(cc2[C@@H]2[C@H]1c1ccc([N+](=O)[O-])cc1C(=O)N2CCCCl)OCO3
MGM (Cell line): 0.018 µM

Concentration [8]: 100 µM
SMILES: O=C1c2cc3c(cc2-c2c1c1ccc([N+](=O)[O-])cc1c(=O)n2CCCCl)OCO3
MGM (Cell line): 0.83 µM

GI50 (HCT-116 [13]): 0.418 µM
Concentration [14]: 100 µM
GI50 (DU-145 [18]): 4.1 µM
GI50 (HCT-116 [20]): 0.0599 µM
GI50 (P388 [21]): 0.00988 µM
GI50 (OVCAR-3 [22]): 6.7 µM
SMILES: COc1cc2c(cc1OC)[C@H]1C(=O)c3cc4c(cc3[C@H]1N(C)C2=O)OCO4
GI50 [3]: 2.1 µM
GI50 [15]: 1.26 µM
RF [16]: 128
GI50 [9]: 17 µM
GI50 (HCT-116 [17]): 0.012 µM
GI50 ([10]; Homo sapiens, UACC-62): 0.42 µM
GI50 ([11]; Homo sapiens, HCT-116): 2 µM
RF (HCT-116 [19]): 35
GI50 [12]: 3.1 µM
MGM (Cell line): 5 µM
RF (HCT-116 [23]): 1
RF (P388 [24]): 1
GI50 (HOP-62): 9.4 µM
RF (HCT-116 [25]): 7
